This note sets out measurements from patent publication US8575143B2, “3-aryl-substituted quinazolones, and uses thereof” (Prolexys Pharmaceuticals, Inc., priority 2005, dated 2013).

Data set [1] concerns HT-1080 cells. The data set can be described thus: Sytox assay, inhibition of growth of HT-1080 cells. It is filed as cell-based. Particulars: Homo sapiens, 48 hours exposure. On the procedure: The ability of Compound 1, in DMSO, to inhibit the growth of tumor and normal cells was measured. The compound was assayed by the Sytox primary screen, a phenotypic assay which monitors alterations in cell survival-proliferation as a result of compound treatment. It was devised as high throughput method to identify compounds which specifically alter the growth potential of cells harboring the causative mutations found in cancer patients while not affecting the growth of normal cells. The assay relies upon an inexpensive, simple and reliable readout of a membrane impermeable fluorescent dye (Sytox, from Molecular Probes) which binds to nucleic acid. In healthy cells, no signal is detected because the cell's membrane is intact and the dye will not enter. However, if a cell's membrane is compromised as a result of apoptosis or necrosis, a fluorescent signal proportional to the number of similarly affected cells will be detected. By utilizing a two-step readout (final read in the presence of detergent to permit labeling of all cells), the assay can identify compounds which produce cytostasis, cytotoxicity and/or mitogenesis. The first read or “dead cell” read, provides an estimate of the toxicity of a given compound by indicating the number of dead or dying cells in the culture at the time of assay. The second read or “total cell” read, captures both the cumulative effects of cytoxicity in reducing the size of the cell population as well as any cytostatic or anti-proliferative effects a test compound may exert on the cells in the test population in the absence of toxicity.
Cells were seeded overnight in 96 well plates at densities that without treatment would permit 95% confluence in the wells 72 hours later. The following day, the cells were exposed to test compounds in a dilution series for a period of 48 hours. Following this incubation period, the Sytox reagent was added to the cultures at the manufacturer's recommended concentration and the dead cell fluorescence read was taken. After completion of this measurement, the detergent Saponin was added to each well of the cultures to permeabilize the membranes allowing the Sytox reagent to enter every cell, thereby facilitating measurement of the total number of cells remaining in the culture.
The ability of various compounds of the invention, in DMSO, to inhibit the growth of HT-1080 cells was measured. The HT-1080 cell line used in these experiments was derived from a patient with fibrosarcoma and harbors an activating mutation in the N-ras gene at codon 12. The compound was assayed using the assay described in Example 3. The results of the assay are shown in the table below, where the activity corresponds to the following ranges: A—less than 10 nM, B—10-100 nM, C—100-1000 nM, D—1000-2000 nM, E—greater than 2000 nM.

Data set [2] concerns tumor cells. The data set can be described thus: Sytox primary screen, inhibition of growth of tumor cells. The format is cell-based. The settings on record: compound in DMSO, 48 hours exposure, Sytox read. Here is the method:
The ability of Compound 1, in DMSO, to inhibit the growth of tumor and normal cells was measured. The compound was assayed by the Sytox primary screen, a phenotypic assay which monitors alterations in cell survival-proliferation as a result of compound treatment. It was devised as high throughput method to identify compounds which specifically alter the growth potential of cells harboring the causative mutations found in cancer patients while not affecting the growth of normal cells. The assay relies upon an inexpensive, simple and reliable readout of a membrane impermeable fluorescent dye (Sytox, from Molecular Probes) which binds to nucleic acid. In healthy cells, no signal is detected because the cell's membrane is intact and the dye will not enter. However, if a cell's membrane is compromised as a result of apoptosis or necrosis, a fluorescent signal proportional to the number of similarly affected cells will be detected. By utilizing a two-step readout (final read in the presence of detergent to permit labeling of all cells), the assay can identify compounds which produce cytostasis, cytotoxicity and/or mitogenesis. The first read or “dead cell” read, provides an estimate of the toxicity of a given compound by indicating the number of dead or dying cells in the culture at the time of assay. […]

A short description of data set [3]: IV maximum tolerated dose (MTD). The settings on record: Nude Balb/c, mouse, in vivo, QD x 5 days, mice.
Data set [4] deals with HT-1080 xenografts. Put plainly: HT-1080 tumor xenograft, daily IV administration for 5 days. It is filed as in vivo. Particulars: nude Balb/c mice, QD x 5 days. On the procedure:
The ability of compounds 10 and 25 to inhibit the growth of HT-1080 xenografts following daily, intravenous administration was examined using similar methods (described below). Compounds 10 and 25 were administered for 5 consecutive days and were evaluated at their respective IV MTD doses.
The HT-1080 cell line used in this xenograft study was derived from a patient with fibrosarcoma and harbors an activating mutation in the N-ras gene at codon 12. […] Robust tumor regression was observed when the compounds were administered at their respective MTD. No adverse clinical signs were observed
Nude Balb/c (Nu/Nu strain, Charles River Laboratories), female, 5-6 wks. old (˜22 g average body weight).
• A: Untreated Control, n=6 • B: Vehicle Control for Compound 10, QD×5 days, IV, n=6 • D: Compound 10 @ 25 mg/Kg (MTD), QD×5 days, IV, n=6 • E: Compound 10 @ 12.5 mg/Kg (½ MTD), QD×5 days, IV, n=6 Treatment Schedule: […]
Starting on Day 1, all animals were weighed, and tumor dimensions (L & W) were measured, every other day. […]
The resulting tumor volume values were averaged for each study group for each time point, and were then plotted against time. Variance was expressed as standard error of the mean (±SEM).

Setting [5] is: compound in DMSO, Sytox assay of Example 3, read-out: Activity (inhibition of growth of HT-1080 cells).
[6] abbreviates: Sytox read, read-out: IC50, inhibition of proliferation of HT-1080 cells.

Each structure is given as a SMILES string. Like-named read-outs stand apart in the source and are kept apart here.

Consider `Nc1ccc2c(=O)n(-c3ccc(F)cc3Cl)c(CN3CCNCC3)nc2c1` [Compound 14, 7-amino-3-(2-chloro-4-fluorophenyl)-2-(piperazin-1-ylmethyl)quinazolin-4(3H)-one], for which the IC50 in data set [1] (setting [5]) was more than 2000 nM.

Regarding `CCOc1ccccc1-n1c(CN2CCCN(C)CC2)nc2cc(NCCN3CCOCC3)ccc2c1=O` [Compound 15, 3-(2-ethoxyphenyl)-2-((4-methyl-1,4-diazepan-1-yl)methyl)-7-(2-morpholinoethylamino)quinazolin-4(3H)-one], the IC50 in data set [1] (setting [5]) fell in the range of 100 to 1000 nM.

For the molecule `CCOc1ccccc1-n1c(CN2CCCN(C)CC2)nc2cc(NCCOC)ccc2c1=O` [Compound 11, 3-(2-ethoxyphenyl)-7-(2-methoxyethylamino)-2-((4-methyl-1,4-diazepan-1-yl)methyl)quinazolin-4(3H)-one], the IC50 in data set [1] (setting [5]) is more than 2000 nM.

For `O=c1c2ccccc2nc(CN2CCNCC2)n1-c1ccc(OC(F)(F)F)cc1Cl` [Compound 21, 3-(2-chloro-4-(trifluoromethoxy)phenyl)-2-(piperazin-1-ylmethyl)quinazolin-4(3H)-one], the IC50 in data set [1] (setting [5]) lay in the range of 100 to 1000 nM.

Regarding `CCOc1ccccc1-n1c(C(C)N2CCN(C(=O)COc3ccc(Cl)cc3)CC2)nc2cc(Cl)ccc2c1=O` (centres unmarked) [Compound 1, 2-(1-(4-(2-(4-chlorophenoxy)acetyl)piperazin-1-yl)ethyl)-7-chloro-3-(2-ethoxyphenyl)quinazolin-4(3H)-one], the IC50 in data set [2] is approximately 10000 nM.

Usually MTD stands for the largest dose that counted as tolerated. A lower MTD goes with a narrow tolerated range. Consider `CCOc1ccccc1-n1c(C(C)N2CCCN(C)CC2)nc2cc(N)ccc2c1=O` (centres unmarked) [Compound 10, 7-amino-3-(2-ethoxyphenyl)-2-(1-(4-methyl-1,4-diazepan-1-yl)ethyl)quinazolin-4(3H)-one], for which the MTD at 5 days in data set [3] is 25 mg/kg. Further, the “inhibition in growth of HT-1080 cell xenograft” value in data set [4] is recorded as “inhibition in growth”. For the same molecule, the IC50 in data set [1] (setting [5]) was less than 10 nM.

Regarding `CCOc1ccccc1-n1c(CN2CCCN(C)CC2)nc2cc(F)ccc2c1=O` [Compound 24, 3-(2-ethoxyphenyl)-7-fluoro-2-((4-methyl-1,4-diazepan-1-yl)methyl)quinazolin-4(3H)-one], the IC50 in data set [1] (setting [5]) was 100 to 1000 nM.

Turning to `CCOc1cc(F)ccc1-n1c(CN2CCCN(C)CC2)nc2cc(N)ccc2c1=O` [Compound 19, 7-amino-3-(2-ethoxy-4-fluorophenyl)-2-((4-methyl-1,4-diazepan-1-yl)methyl)quinazolin-4(3H)-one], the IC50 in data set [1] (setting [5]) is less than 10 nM.

Regarding `CN1CCCN(Cc2nc3ccccc3c(=O)n2-c2c(F)cc(F)cc2Cl)CC1` [Compound 18, 3-(2-chloro-4,6-difluorophenyl)-2-((4-methyl-1,4-diazepan-1-yl)methyl)quinazolin-4(3H)-one], in data set [1] (setting [5]), the IC50 was in the range of 100 to 1000 nM.

`CCOc1ccccc1-n1c(CN2CCCN(C)CC2)nc2cc(N)ccc2c1=O` [Compound 25, 7-amino-3-(2-ethoxyphenyl)-2-((4-methyl-1,4-diazepan-1-yl)methyl)quinazolin-4(3H)-one]: the “inhibition in growth of HT-1080 cell xenograft” value in data set [4] is listed as “inhibition in growth”. For the same molecule, in data set [1] (setting [5]), the IC50 was less than 10 nM.

For the molecule `CCOc1ccccc1-n1c(CN2CCNCC2)nc2cccc(Cl)c2c1=O` [Compound 2, 5-chloro-3-(2-ethoxyphenyl)-2-(piperazin-1-ylmethyl)quinazolin-4(3H)-one], the IC50 in data set [1] (setting [6]) was 100 nM; in data set [1] (setting [5]), 10 to 100 nM.

Regarding `CN1CCCN(Cc2nc3ccccc3c(=O)n2-c2ccc(OC(F)(F)F)cc2Cl)CC1` [Compound 20, 3-(2-chloro-4-(trifluoromethoxy)phenyl)-2-((4-methyl-1,4-diazepan-1-yl)methyl)quinazolin-4(3H)-one], in data set [1] (setting [5]), the IC50 fell in the range of 10 to 100 nM.

In the case of `CCOc1cc([N+](=O)[O-])ccc1-n1c(CN2CCCNCC2)nc2ccccc2c1=O` [Compound 3, 2-((1,4-diazepan-1-yl)methyl)-3-(2-ethoxy-4-nitrophenyl)quinazolin-4(3H)-one], the IC50 was 200 nM in data set [1] (setting [6]) and 100 to 1000 nM in data set [1] (setting [5]).

As to `CCOc1ccccc1-n1c(CN2CCCN(C)CC2)nc2cc(C(F)(F)F)ccc2c1=O` [Compound 16, 3-(2-ethoxyphenyl)-2-((4-methyl-1,4-diazepan-1-yl)methyl)-7-(trifluoromethyl)quinazolin-4(3H)-one], in data set [1] (setting [5]), the IC50 lay in the range of 100 to 1000 nM.

Regarding `CN1CCCN(Cc2nc3cc(N)ccc3c(=O)n2-c2c(Cl)cccc2Cl)CC1` [Compound 22, 7-amino-3-(2,6-dichlorophenyl)-2-((4-methyl-1,4-diazepan-1-yl)methyl)quinazolin-4(3H)-one], the IC50 in data set [1] (setting [5]) lay in the range of 100 to 1000 nM.

Turning to `CN1CCCN(Cc2nc3cc(N)ccc3c(=O)n2-c2ccc(F)cc2Cl)CC1` [Compound 13, 7-amino-3-(2-chloro-4-fluorophenyl)-2-((4-methyl-1,4-diazepan-1-yl)methyl)quinazolin-4(3H)-one], in data set [1] (setting [5]), the IC50 was more than 2000 nM.

On to `CCOc1ccccc1-n1c(C(C)N2CCCN(C)CC2)nc2cc([N+](=O)[O-])ccc2c1=O` (centres unmarked) [Compound 12, 3-(2-ethoxyphenyl)-2-(1-(4-methyl-1,4-diazepan-1-yl)ethyl)-7-nitroquinazolin-4(3H)-one], for which, in data set [1] (setting [5]), the IC50 is 100 to 1000 nM.

Regarding `O=c1c2ccccc2nc(CN2CCNCC2)n1-c1c(F)cc(F)cc1Cl` [Compound 17, 3-(2-chloro-4,6-difluorophenyl)-2-(piperazin-1-ylmethyl)quinazolin-4(3H)one], the IC50 in data set [1] (setting [5]) fell in the range of 100 to 1000 nM.
